Experimental data: article PMC10005754, “Non-Nutritive Sweeteners Acesulfame Potassium and Sucralose Are Competitive Inhibitors of the Human P-glycoprotein/Multidrug Resistance Protein 1 (PGP/MDR1)” (Nutrients, 2023)

Biological target: T1, P-glycoprotein (PGP/MDR1) (Homo sapiens, UniProt P08183)
T1 construct: gene ABCB1; recombinant human PGP in membrane vesicles (Human MDR1 vesicles)
Assay: ATPase stimulation (ADP-Glo Max) in human MDR1 vesicles; also Calcein-AM retention in HepG2 cells
Type: biochemical

T1 sequence (P08183 whole entry): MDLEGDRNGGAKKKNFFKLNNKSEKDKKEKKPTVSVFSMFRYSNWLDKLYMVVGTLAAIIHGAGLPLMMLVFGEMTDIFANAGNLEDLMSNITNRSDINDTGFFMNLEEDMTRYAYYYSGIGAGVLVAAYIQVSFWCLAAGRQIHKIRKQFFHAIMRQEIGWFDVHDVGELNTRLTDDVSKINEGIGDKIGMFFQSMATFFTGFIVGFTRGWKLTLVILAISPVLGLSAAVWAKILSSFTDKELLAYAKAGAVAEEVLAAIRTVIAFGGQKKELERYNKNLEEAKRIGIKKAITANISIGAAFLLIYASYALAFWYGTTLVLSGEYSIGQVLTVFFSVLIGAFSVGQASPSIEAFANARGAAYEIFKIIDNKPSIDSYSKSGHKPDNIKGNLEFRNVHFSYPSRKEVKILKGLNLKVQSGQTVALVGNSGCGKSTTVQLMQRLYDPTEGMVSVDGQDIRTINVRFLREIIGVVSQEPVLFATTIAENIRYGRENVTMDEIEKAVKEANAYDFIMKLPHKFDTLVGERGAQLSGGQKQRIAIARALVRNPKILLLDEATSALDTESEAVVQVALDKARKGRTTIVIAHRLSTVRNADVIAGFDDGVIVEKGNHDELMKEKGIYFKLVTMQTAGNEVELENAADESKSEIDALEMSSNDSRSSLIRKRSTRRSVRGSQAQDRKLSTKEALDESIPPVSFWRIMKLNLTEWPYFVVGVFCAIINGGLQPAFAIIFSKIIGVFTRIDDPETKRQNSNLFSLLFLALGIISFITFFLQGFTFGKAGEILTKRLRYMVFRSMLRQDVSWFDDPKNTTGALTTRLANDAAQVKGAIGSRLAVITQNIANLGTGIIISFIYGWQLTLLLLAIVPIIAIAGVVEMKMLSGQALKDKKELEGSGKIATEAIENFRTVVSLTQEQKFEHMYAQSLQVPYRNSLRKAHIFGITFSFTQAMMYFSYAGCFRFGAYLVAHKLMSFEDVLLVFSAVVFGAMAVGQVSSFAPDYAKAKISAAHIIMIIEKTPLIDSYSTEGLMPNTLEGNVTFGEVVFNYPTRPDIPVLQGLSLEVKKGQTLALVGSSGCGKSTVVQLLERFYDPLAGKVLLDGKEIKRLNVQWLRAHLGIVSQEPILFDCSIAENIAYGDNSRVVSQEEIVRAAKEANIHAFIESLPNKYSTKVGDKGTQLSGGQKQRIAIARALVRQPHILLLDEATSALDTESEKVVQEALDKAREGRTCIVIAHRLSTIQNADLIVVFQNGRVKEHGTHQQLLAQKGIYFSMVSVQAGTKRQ

## OC[C@H]1O[C@H](O[C@]2(CCl)O[C@H](CCl)[C@@H](O)[C@@H]2O)[C@H](O)[C@@H](O)[C@H]1Cl [Sucr, sucralose]
  EC50: 0.056 nM
